In US10017480B2, “Compounds having a selective PDE4D inhibiting activity” (UNIVERSITÂ DEGLI STUDI DI GENOVA, priority 2014, dated 2018):
Where a name gives a salt, the structure may show the parent alone. Read-outs that look alike come from different tables or passages of the source.

What was measured:
PDE4D3 = PDE4D3 (Homo sapiens, UniProt Q08499); experiment: PDE4D3 enzyme inhibition (IMAP); assay type: biochemical
Protocol: Compound's evaluation on PDE4D3, PDE4A4, PDE4B2 and PDE4C2 enzyme assays were performed by Scottish Biomedical (Glasgow, Scotland, UK) using recombinant human PDE enzymes expressed in a baculoviral system. The preliminary screening assays were performed by the IMAP technology (Molecular Devices), which is based on the high affinity binding of phosphate by immobilized metal coordination complexes on nanoparticles. The binding reagent complexes with phosphate groups on nucleotide monophosphate generated from cyclic nucleotides (cAMP) through phosphodiesterases. With fluorescence polarization detection, binding causes a change in the rate of the molecular motion of the phosphate bearing molecule and results in an increase in the fluorescence polarization value observed for the fluorescent label attached to the substrate. […] All compounds were solved in DMSO at 10^−2 M concentration and then diluted with water to the final suitable concentrations. All synthesized compounds were tested preliminary on PDE4D3 at 10^−5 M concentration, in duplicate. Results are expressed as a percent inhibition of control activity (see table 1).
IC50 values are reported at μM concentration in table 1. […] The results are reported (as percent of inhibition at 10 μM concentration) in Table 1.

Sequence of PDE4D3 (Q08499 1-673 isoform Q08499-2): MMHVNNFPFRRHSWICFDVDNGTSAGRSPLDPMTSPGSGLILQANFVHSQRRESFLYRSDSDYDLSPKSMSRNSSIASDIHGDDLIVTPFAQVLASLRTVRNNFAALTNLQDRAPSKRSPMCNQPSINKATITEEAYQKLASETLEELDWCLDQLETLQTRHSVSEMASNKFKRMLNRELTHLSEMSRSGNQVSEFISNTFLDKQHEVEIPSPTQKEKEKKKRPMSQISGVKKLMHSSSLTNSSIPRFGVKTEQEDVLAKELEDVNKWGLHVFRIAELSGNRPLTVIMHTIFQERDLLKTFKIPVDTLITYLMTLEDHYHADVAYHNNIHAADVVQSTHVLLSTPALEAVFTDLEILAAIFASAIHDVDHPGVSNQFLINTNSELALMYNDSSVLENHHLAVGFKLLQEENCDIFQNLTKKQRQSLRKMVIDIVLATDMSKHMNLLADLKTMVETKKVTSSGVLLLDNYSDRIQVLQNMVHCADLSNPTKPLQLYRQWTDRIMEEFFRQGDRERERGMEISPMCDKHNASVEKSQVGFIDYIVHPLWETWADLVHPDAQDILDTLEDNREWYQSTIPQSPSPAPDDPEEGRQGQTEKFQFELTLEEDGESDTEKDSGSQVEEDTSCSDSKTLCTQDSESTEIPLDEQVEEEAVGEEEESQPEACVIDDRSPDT

| Compound | melting point | PDE4D3 % inib at 10 μM (PDE4D3; 10 μM, in duplicate) [%] | PDE4D3 % inib at 10 μM (PDE4D3) [%] |
| --- | --- | --- | --- |
| COc1ccc(C2=NOC(C(=O)N3CCC(O)CC3)C2)cc1OC1CCCC1 (stereo not drawn) [XIIIc, 1-({3-[3-(Cyclopentyloxy)-4-methoxyphenyl]4,5-dihydroisoxazol-5-yl}carbonyl)piperidin-4-ol] | 134 °C | 26 | – |
| COc1ccc(-c2cc(C(=O)CN3CC(C)OC(C)C3)on2)cc1OC1CCCC1 (stereo not drawn) (as salt: hydrochloride) [XVb, 1-{3-[3-(Cyclopentyloxy)-4-methoxyphenyl]isoxazol-5-yl}-2-(2,6-dimethylmorpholin-4-yl)ethanone hydrochloride] | 200 °C (dec.) | – | – |
| COc1ccc(C2=NOC(CC(=O)N3CCC(O)CC3)C2)cc1OC1CCCC1 (stereo not drawn) [XIVc, 1-({3-[3-(Cyclopentyloxy)-4-methoxyphenyl]-4,5-dihydroisoxazol-5-yl}acetyl)piperidin-4-ol] | 134 °C | 30 | – |
| COc1ccc(C2=NOC(C(=O)N3CCCC3)C2)cc1OC1CCCC1 (stereo not drawn) [XIIId, 3-[3-(Cyclopentyloxy)-4-methoxyphenyl]-5-(pyrrolidin-1-ylcarbonyl)-4,5-dihydroisoxazole] | 126 to 127 °C | 15 | – |
| COc1ccc(-c2cc(C(=O)CN3CC(C)OC(C)C3)on2)cc1OC1CCCC1 (stereo not drawn) [XVb, 1-{3-[3-(Cyclopentyloxy)-4-methoxyphenyl]isoxazol-5-yl}-2-(2,6-dimethylmorpholin-4-yl)ethanone hydrochloride] | – | 13 | – |
| COc1ccc(C2=NOC(C(=O)N3CCCCC3)C2)cc1OC1CCCC1 (stereo not drawn) [XIIIe, 1-({3-[3-(Cyclopentyloxy)-4-methoxyphenyl]-4,5-dihydroisoxazol-5-yl}carbonyl)piperidine] | 130 °C | 8 | – |
| COc1ccc(-c2ccn(CC(O)CN3CCC(O)CC3)n2)cc1OC1CCCC1 (stereo not drawn) [XVIIIc, 1-(3-{3-[3-(cyclopentyloxy)-4-methoxyphenyl]4H-pyrazol-1-yl}-2-hydroxypropyl)piperidin-4-ol] | – | 2 | – |
| COc1ccc(-c2ccn(CC(O)CN3CC(C)OC(C)C3)n2)cc1OC1CCCC1 (stereo not drawn) (as salt: salt) [XVIIIb, 1-{3-[3-(Cyclopentyloxy)-4-methoxyphenyl]-1H-pyrazol-1-yl}-3-(2,6-dimethylmorpholin-4-yl)propan-2-ol dihydrocloride] | 188 to 189 °C | – | – |
| COc1ccc(-c2ccn(CC(O)CN3CCOCC3)n2)cc1OC1CCCC1 (stereo not drawn) (as salt: salt) [XVIIIa, 1-{3-[3-(Cyclopentyloxy)-4-methoxyphenyl]-1H-pyrazol-1-yl}-3-morpholin-4-ylpropan-2-ol dihydrocloride] | 162 to 163 °C | – | – |
| COc1ccc(-c2cc(C(=O)N3CCOCC3)on2)cc1OC1CCCC1 [XVIIa, 4-({3-[3-(Cyclopentyloxy)-4-methoxyphenyl]isoxazol-5-yl}carbonyl)morpholine] | 100 to 101 °C | 41 | – |
| COc1ccc(C2=NOC(C(=O)N3CC(C)OC(C)C3)C2)cc1OC1CCCC1 (stereo not drawn) [XIIIb, 4-({3-[3-(Cyclopentyloxy)-4-methoxyphenyl]-4,5-dihydroisoxazol-5-yl}carbonyl)-2,6-dimethylmorpholine] | 127 to 129 °C | 29 | – |
| COc1ccc(C2=NOC(CC(=O)N3CCCCC3)C2)cc1OC1CCCC1 (stereo not drawn) [XIVe, 1-({3-[3-(Cyclopentyloxy)-4-methoxyphenyl]-4,5-dihydroisoxazol-5-yl}acetyl)piperidine] | 104 to 106 °C | 40 | – |
| COc1ccc(C2=NOC(CC(=O)N3CCNCC3)C2)cc1OC1CCCC1 (stereo not drawn) [XIVf, 1-({3-[3-(Cyclopentyloxy)-4-methoxyphenyl]-4,5-dihydroisoxazol-5-yl}acetyl)piperazine] | 108 to 111 °C | 23 | – |
| COc1ccc(C2=NOC(C(=O)N(CCO)CCO)C2)cc1OC1CCCC1 (stereo not drawn) [XIIIf, 3-[3-(Cyclopentyloxy)-4-methoxyphenyl]-N,N-bis(2-hydroxyethyl)-4,5-dihydroisoxazole-5-carboxamide] | – | 33 | – |

Second part, the compound after the results:

| melting point | PDE4D3 % inib at 10 μM (PDE4D3; 10 μM, in duplicate) [%] | PDE4D3 % inib at 10 μM (PDE4D3) [%] | Compound |
| --- | --- | --- | --- |
| 110 to 112 °C | 29 | – | COc1ccc(-c2ccn(CCC(=O)N3CCC(O)CC3)c2)cc1OC1CCCC1 [XXIVc] |
| – | 21 | – | COc1ccc(-c2ccn(CC(O)CN3CCOCC3)c2)cc1OC1CCCC1 (stereo not drawn) [XXVa, 1-{3-[3-(Cyclopentyloxy)-4-methoxy-phenyl]-pyrrol-1-yl}-3-morpholin-4-yl-propan-2-ol] |
| 136 to 137 °C | 38 | – | COc1ccc(-c2cc(C(O)CN3CCOCC3)on2)cc1OC1CCCC1 (stereo not drawn) [XVIa, 1-{3-[3-(Cyclopentyloxy)-4-methoxyphenyl]isoxazol-5-yl}-2-morpholin-4-ylethanol] |
| 175 °C (dec.) | – | – | COc1ccc(-c2cc(C(=O)CN3CCOCC3)on2)cc1OC1CCCC1 (as salt: hydrochloride) [XVa, 1-{3-[3-(Cyclopentyloxy)-4-methoxyphenyl]isoxazol-5-yl}-2-morpholin-4-ylethanone hydrochloride] |
| – | 39 | – | COc1ccc(-c2cc(C(=O)CN3CCOCC3)on2)cc1OC1CCCC1 [XVa, 1-{3-[3-(Cyclopentyloxy)-4-methoxyphenyl]isoxazol-5-yl}-2-morpholin-4-ylethanone hydrochloride] |
| – | 6 | – | COc1ccc(-c2c[nH]cc2C(=O)N2CC(C)OC(C)C2)cc1OC1CCCC1 (stereo not drawn) [XXVIb, {4-[3-(Cyclopentyloxy)-4-methoxy-phenyl]-1H-pyrrol-3-yl}-(2,6-dimethyl-morpholin-4-yl)-methanone] |
| – | 5 | – | COc1ccc(-c2ccn(CC(O)CN3CCC(O)CC3)c2)cc1OC1CCCC1 (stereo not drawn) [XXVc, 1-(3-{3-[3-(cyclopentyloxy)-4-methoxy-phenyl]-pyrrol-1-yl}-2-hydroxy-propyl)-piperidin-4-ol] |
| – | 13 | – | COc1ccc(-c2c[nH]cc2C(=O)N2CCOCC2)cc1OC1CCCC1 [XXVIa, {4-[3-(Cyclopentyloxy)-4-methoxy-phenyl]-1H-pyrrol-3-yl}-morpholin-4-yl-methanone] |
| 156 to 158 °C | 9 | – | COc1ccc(-c2ccn(CC(=O)N3CCC(O)CC3)c2)cc1OC1CCCC1 [XXIIIc, 2-{3-[3-(Cyclopentyloxy)-4-methoxy-phenyl]-pyrrol-1-yl}-1-(4-hydroxy-piperidin-1-yl)-ethanone] |
| – | 36 | – | COc1ccc(-c2ccn(CC(O)CN3CC(C)OC(C)C3)c2)cc1OC1CCCC1 (stereo not drawn) [XXVb, 1-{3-[3-(Cyclopentyloxy)-4-methoxy-phenyl]-pyrrol-1-yl}-3-(2,6-dimethyl-morpholin-4-yl)-propan-2-ol] |
| – | – | 73 | OC1CCN(CC(O)Cn2ccc(-c3ccc(OC(F)F)c(OC4CCCC4)c3)n2)CC1 (stereo not drawn) [XXIIc, 1-(3-{3-[3-(cyclopentyloxy)-4-difluoromethoxy-phenyl]-pyrazol-1-yl}-2-hydroxy-propyl)-piperidin-4-ol] |
| 110 to 112 °C | 44 | – | COc1ccc(-c2ccn(CCC(=O)N3CCOCC3)c2)cc1OC1CCCC1 [XXIVa, 3-{3-[3-(cyclopentyloxy)-4-methoxy-phenyl]-pyrrol-1-yl}-1-morpholin-4-yl-propan-1-one] |
| – | 15 | – | COc1ccc(-c2c[nH]cc2C(=O)N2CCC(O)CC2)cc1OC1CCCC1 [XXVIc, {4-[3-(Cyclopentyloxy)-4-methoxy-phenyl]-1H-pyrrol-3-yl}-(4-hydroxy-piperidin-1-yl)-methanone] |
